Laboratory results as given in PubChem BioAssay (NCI).
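Step 1: Grow cells in 96-well plates. Step 2: Expose to compound for 48 hours at 5 concentrations. Step 3: Interpolate endpoints linearly; if unreached, use highest concentration. GI50 is the concentration that inhibits growth by half. The concentration for full growth arrest is given as TGI.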

Columns and labels:
Assay in all cases: NCI-60 cell line screen, 48 h
786-0 renal = system: 786-0 renal
A498 renal = system: A498 renal
A549 NSCLC = system: A549 NSCLC
ACHN renal = system: ACHN renal
BT-549 breast = system: BT-549 breast
CAKI-1 renal = system: CAKI-1 renal
CCRF-CEM leukemia = system: CCRF-CEM leukemia
COLO 205 colon = system: COLO 205 colon
DU-145 prostate = system: DU-145 prostate
EKVX NSCLC = system: EKVX NSCLC
HCC-2998 colon = system: HCC-2998 colon
HCT-116 colon = system: HCT-116 colon
HCT-15 colon = system: HCT-15 colon
HL-60(TB) leukemia = system: HL-60(TB) leukemia
HOP-62 NSCLC = system: HOP-62 NSCLC
HOP-92 NSCLC = system: HOP-92 NSCLC
HS 578T breast = system: HS 578T breast
HT29 colon = system: HT29 colon
IGROV1 ovarian = system: IGROV1 ovarian
K-562 leukemia = system: K-562 leukemia
KM12 colon = system: KM12 colon
M14 melanoma = system: M14 melanoma
MALME-3M melanoma = system: MALME-3M melanoma
MDA-MB-231 breast = system: MDA-MB-231 breast
MDA-MB-435 = system: MDA-MB-435
MOLT-4 leukemia = system: MOLT-4 leukemia
NCI-H226 lung = system: NCI-H226 lung
NCI-H23 lung = system: NCI-H23 lung
NCI-H460 lung = system: NCI-H460 lung
NCI-H522 lung = system: NCI-H522 lung
OVCAR-3 ovarian = system: OVCAR-3 ovarian
OVCAR-4 ovarian = system: OVCAR-4 ovarian
OVCAR-5 ovarian = system: OVCAR-5 ovarian
PC-3 prostate = system: PC-3 prostate
RPMI-8226 leukemia = system: RPMI-8226 leukemia
RXF 393 renal = system: RXF 393 renal
SF-268 CNS = system: SF-268 CNS
SF-539 CNS = system: SF-539 CNS
SK-MEL-2 melanoma = system: SK-MEL-2 melanoma
SK-MEL-28 melanoma = system: SK-MEL-28 melanoma
SK-MEL-5 melanoma = system: SK-MEL-5 melanoma
SK-OV-3 ovarian = system: SK-OV-3 ovarian
SN12C renal = system: SN12C renal
SNB-19 CNS = system: SNB-19 CNS
SNB-75 CNS = system: SNB-75 CNS
SW-620 colon = system: SW-620 colon
T-47D breast = system: T-47D breast
TK-10 renal = system: TK-10 renal
U251 CNS = system: U251 CNS
UACC-257 melanoma = system: UACC-257 melanoma
UACC-62 melanoma = system: UACC-62 melanoma
UO-31 renal = system: UO-31 renal
LOX IMVI melanoma = system: LOX IMVI melanoma
MCF7 breast = system: MCF7 breast
NCI/ADR-RES ovarian = system: NCI/ADR-RES ovarian
OVCAR-8 ovarian = system: OVCAR-8 ovarian
SF-295 CNS = system: SF-295 CNS
SR leukemia = system: SR leukemia

CCCCCCCCCCCCCCCCCC1=NC(C)(C)CN1C(C)(C)CO
GI50 (786-0 renal): 1.45 µM
TGI (786-0 renal): 2.89 µM
GI50 (A498 renal): 11.2 µM
TGI (A498 renal): 31.2 µM
GI50 (A549 NSCLC): 1.68 µM
TGI (A549 NSCLC): 3.31 µM
GI50 (ACHN renal): 1.53 µM
TGI (ACHN renal): 3.05 µM
GI50 (BT-549 breast): 3.28 µM
TGI (BT-549 breast): 14 µM
GI50 (CAKI-1 renal): 1.6 µM
TGI (CAKI-1 renal): 3.9 µM
GI50 (CCRF-CEM leukemia): 1.39 µM
TGI (CCRF-CEM leukemia): 4.88 µM
GI50 (COLO 205 colon): 0.407 µM
TGI (COLO 205 colon): 1.38 µM
GI50 (DU-145 prostate): 1.61 µM
TGI (DU-145 prostate): 3.03 µM
GI50 (EKVX NSCLC): 2.21 µM
TGI (EKVX NSCLC): 14 µM
GI50 (HCC-2998 colon): 1.2 µM
TGI (HCC-2998 colon): 2.5 µM
GI50 (HCT-116 colon): 0.559 µM
TGI (HCT-116 colon): 2.01 µM
GI50 (HCT-15 colon): 1.38 µM
TGI (HCT-15 colon): 3.16 µM
GI50 (HL-60(TB) leukemia): 1.15 µM
TGI (HL-60(TB) leukemia): 4.07 µM
GI50 (HOP-62 NSCLC): 1.72 µM
TGI (HOP-62 NSCLC): 3.19 µM
GI50 (HOP-92 NSCLC): 0.85 µM
TGI (HOP-92 NSCLC): 3.37 µM
GI50 (HS 578T breast): 1.62 µM
TGI (HS 578T breast): 3.98 µM
GI50 (HT29 colon): 1.44 µM
TGI (HT29 colon): 3.44 µM
GI50 (IGROV1 ovarian): 1.08 µM
TGI (IGROV1 ovarian): 2.6 µM
GI50 (K-562 leukemia): 1.11 µM
TGI (K-562 leukemia): 4.05 µM
GI50 (KM12 colon): 1.34 µM
TGI (KM12 colon): 2.64 µM
GI50 (M14 melanoma): 1.46 µM
TGI (M14 melanoma): 2.88 µM
GI50 (MALME-3M melanoma): 1.94 µM
TGI (MALME-3M melanoma): 4.22 µM
GI50 (MDA-MB-231 breast): 1.29 µM
TGI (MDA-MB-231 breast): 3.16 µM
GI50 (MDA-MB-435): 1.58 µM
TGI (MDA-MB-435): 3.42 µM
GI50 (MOLT-4 leukemia): 1.45 µM
TGI (MOLT-4 leukemia): 4.05 µM
GI50 (NCI-H226 lung): 2.14 µM
TGI (NCI-H226 lung): 4.06 µM
GI50 (NCI-H23 lung): 1.52 µM
TGI (NCI-H23 lung): 2.99 µM
GI50 (NCI-H460 lung): 1.31 µM
TGI (NCI-H460 lung): 2.8 µM
GI50 (NCI-H522 lung): 1.63 µM
TGI (NCI-H522 lung): 3.25 µM
GI50 (OVCAR-3 ovarian): 1.5 µM
TGI (OVCAR-3 ovarian): 2.96 µM
GI50 (OVCAR-4 ovarian): 2.05 µM
TGI (OVCAR-4 ovarian): 4.92 µM
GI50 (OVCAR-5 ovarian): 1.56 µM
TGI (OVCAR-5 ovarian): 3.48 µM
GI50 (PC-3 prostate): 1.85 µM
TGI (PC-3 prostate): 4.81 µM
GI50 (RPMI-8226 leukemia): 1.8 µM
TGI (RPMI-8226 leukemia): 4.37 µM
GI50 (RXF 393 renal): 1.11 µM
TGI (RXF 393 renal): 2.36 µM
GI50 (SF-268 CNS): 1.54 µM
TGI (SF-268 CNS): 3.02 µM
GI50 (SF-539 CNS): 1.59 µM
TGI (SF-539 CNS): 3.14 µM
GI50 (SK-MEL-2 melanoma): 1.83 µM
TGI (SK-MEL-2 melanoma): 3.51 µM
GI50 (SK-MEL-28 melanoma): 1.81 µM
TGI (SK-MEL-28 melanoma): 3.28 µM
GI50 (SK-MEL-5 melanoma): 1.68 µM
TGI (SK-MEL-5 melanoma): 3.07 µM
GI50 (SK-OV-3 ovarian): 1.84 µM
TGI (SK-OV-3 ovarian): 3.51 µM
GI50 (SN12C renal): 1.52 µM
TGI (SN12C renal): 3.25 µM
GI50 (SNB-19 CNS): 1.79 µM
TGI (SNB-19 CNS): 4.54 µM
GI50 (SNB-75 CNS): 1.47 µM
TGI (SNB-75 CNS): 3.13 µM
GI50 (SW-620 colon): 1.48 µM
TGI (SW-620 colon): 2.9 µM
GI50 (T-47D breast): 2.3 µM
TGI (T-47D breast): 5.55 µM
GI50 (TK-10 renal): 1.83 µM
TGI (TK-10 renal): 3.34 µM
GI50 (U251 CNS): 1.42 µM
TGI (U251 CNS): 3.03 µM
GI50 (UACC-257 melanoma): 1.78 µM
TGI (UACC-257 melanoma): 3.5 µM
GI50 (UACC-62 melanoma): 1.79 µM
TGI (UACC-62 melanoma): 3.46 µM
GI50 (UO-31 renal): 1.42 µM
TGI (UO-31 renal): 3.43 µM

COc1cc(/C=C2\C(=O)Nc3ccc(Cl)cc32)cc(OC)c1OC
GI50 (A498 renal): 23.2 µM
TGI (A498 renal): 72.4 µM
GI50 (A549 NSCLC): 41.2 µM
TGI (A549 NSCLC): > 100 µM
GI50 (ACHN renal): 23.5 µM
TGI (ACHN renal): > 100 µM
GI50 (BT-549 breast): 22.3 µM
TGI (BT-549 breast): 92.3 µM
GI50 (CAKI-1 renal): 23.6 µM
TGI (CAKI-1 renal): > 100 µM
GI50 (CCRF-CEM leukemia): 7.28 µM
TGI (CCRF-CEM leukemia): > 100 µM
GI50 (COLO 205 colon): 8.01 µM
TGI (COLO 205 colon): > 100 µM
GI50 (EKVX NSCLC): 13.8 µM
TGI (EKVX NSCLC): > 100 µM
GI50 (HCC-2998 colon): 5.82 µM
TGI (HCC-2998 colon): 61.2 µM
GI50 (HCT-15 colon): 9.16 µM
TGI (HCT-15 colon): > 100 µM
GI50 (HL-60(TB) leukemia): 13.4 µM
TGI (HL-60(TB) leukemia): > 100 µM
GI50 (HOP-92 NSCLC): 3.39 µM
TGI (HOP-92 NSCLC): 22.9 µM
GI50 (HS 578T breast): 16.5 µM
TGI (HS 578T breast): > 100 µM
GI50 (HT29 colon): 6.71 µM
TGI (HT29 colon): > 100 µM
GI50 (IGROV1 ovarian): 4.51 µM
TGI (IGROV1 ovarian): > 100 µM
GI50 (K-562 leukemia): 4.44 µM
TGI (K-562 leukemia): > 100 µM
GI50 (KM12 colon): 4.07 µM
TGI (KM12 colon): > 100 µM
GI50 (LOX IMVI melanoma): 21.9 µM
TGI (LOX IMVI melanoma): > 100 µM
GI50 (MALME-3M melanoma): 32 µM
TGI (MALME-3M melanoma): > 100 µM
GI50 (MCF7 breast): 26 µM
TGI (MCF7 breast): > 100 µM
GI50 (MDA-MB-231 breast): 11.4 µM
TGI (MDA-MB-231 breast): 37.3 µM
GI50 (MDA-MB-435): 3.26 µM
TGI (MDA-MB-435): 9.37 µM
GI50 (MOLT-4 leukemia): 75.1 µM
TGI (MOLT-4 leukemia): > 100 µM
GI50 (NCI-H226 lung): 51.3 µM
TGI (NCI-H226 lung): > 100 µM
GI50 (NCI-H23 lung): 12.9 µM
TGI (NCI-H23 lung): 39.2 µM
GI50 (NCI-H460 lung): 24.2 µM
TGI (NCI-H460 lung): > 100 µM
GI50 (NCI-H522 lung): 13.7 µM
TGI (NCI-H522 lung): > 100 µM
GI50 (NCI/ADR-RES ovarian): 7.29 µM
TGI (NCI/ADR-RES ovarian): 59.3 µM
GI50 (OVCAR-3 ovarian): 19.6 µM
TGI (OVCAR-3 ovarian): > 100 µM
GI50 (OVCAR-4 ovarian): 43.9 µM
TGI (OVCAR-4 ovarian): > 100 µM
GI50 (OVCAR-5 ovarian): 21.2 µM
TGI (OVCAR-5 ovarian): 62.3 µM
GI50 (OVCAR-8 ovarian): 22.9 µM
TGI (OVCAR-8 ovarian): > 100 µM
GI50 (PC-3 prostate): 2.93 µM
TGI (PC-3 prostate): > 100 µM
GI50 (RPMI-8226 leukemia): 3.9 µM
TGI (RPMI-8226 leukemia): > 100 µM
GI50 (RXF 393 renal): 1.82 µM
TGI (RXF 393 renal): 8.22 µM
GI50 (SF-268 CNS): 8.99 µM
TGI (SF-268 CNS): > 100 µM
GI50 (SF-295 CNS): 78.2 µM
TGI (SF-295 CNS): > 100 µM
GI50 (SF-539 CNS): 16.8 µM
TGI (SF-539 CNS): 45.6 µM
GI50 (SK-MEL-2 melanoma): 31.9 µM
TGI (SK-MEL-2 melanoma): > 100 µM
GI50 (SK-MEL-28 melanoma): > 100 µM
TGI (SK-MEL-28 melanoma): > 100 µM
GI50 (SK-MEL-5 melanoma): 12.7 µM
TGI (SK-MEL-5 melanoma): > 100 µM
GI50 (SK-OV-3 ovarian): 13.4 µM
TGI (SK-OV-3 ovarian): 33.8 µM
GI50 (SN12C renal): 26.5 µM
TGI (SN12C renal): > 100 µM
GI50 (SNB-19 CNS): 24.8 µM
TGI (SNB-19 CNS): > 100 µM
GI50 (SNB-75 CNS): 7 µM
TGI (SNB-75 CNS): 21.8 µM
GI50 (SR leukemia): 3.29 µM
TGI (SR leukemia): > 100 µM
GI50 (SW-620 colon): 29.9 µM
TGI (SW-620 colon): > 100 µM
GI50 (T-47D breast): > 100 µM
TGI (T-47D breast): > 100 µM
GI50 (TK-10 renal): 24 µM
TGI (TK-10 renal): 78.3 µM
GI50 (U251 CNS): 13.1 µM
TGI (U251 CNS): 32.4 µM
GI50 (UACC-257 melanoma): 29.5 µM
TGI (UACC-257 melanoma): > 100 µM
GI50 (UACC-62 melanoma): 16.3 µM
TGI (UACC-62 melanoma): > 100 µM
GI50 (UO-31 renal): 16 µM
TGI (UO-31 renal): > 100 µM
